Columns and labels:
Format in all cases: cell-based
HLA-A2 = target: T1, HLA-A2 (Homo sapiens, UniProt P04439, D140Y/D185E/D98H/E176V/E277Q/G131W/G231S/I119V/I121R/I166T/I218V/L300P/L318F/N151K/N90K/P208A/P217A/Q86G/Q94H/R138H/R169H/T345S); experiment: VCX118 peptide HLA-A2 binding assay (HLA-A2 stability analysis on T2 cells); details: T2 cells pulsed with different concentrations of peptide
T1 construct: endogenous in cells; host or cells: T2 cells
Description: Different concentrations of VCX118 peptide were pulsed to T2 cells, and the HLA-A2 stability analysis was performed to detect the VCX118 peptide binding ability. VCX54, M26 and M27 peptide were used as control.

VCX54 TCR-T cells [1] = experiment: VCX118 peptide cross reaction detection (peptide titration on T2 cells, ICS); details: T2 cells pulsed with high concentration of peptide
Description: For VCX118 peptide cross reaction detection, different concentration of VCX118 peptide were used to pulse T2 cells and then co-cultured with VCX54 TCR-T cells. […] M26 peptide was used as a negative control (FIG. 2).
(§1) Intracellular cytokine staining (ICS) assay: The T cells were incubated with target cells at 10:1 ration in the presence of brefeldin A (BFA) at 37° C. overnight. After co-culturing, the T cells were harvested and washed. The cells were stained with flow antibody anti surface marker first. After that, the cells were washed and fixed with Fix Buffer and then were permeabilized using Permeabilizing Solution (eBioscience). Permeabilized cells are then stained with intracellular cytokine flow antibody. Finally, the level of cytokine producing in the cells was analyzed using FACS.

VCX54 TCR-T cells [2] = experiment: Peptide titration killing assay (calcein-AM quenching assay); details: peptide-pulsed T2 cells labeled with Calcein-AM, high concentrations
Source text: Different concentrations of VCX118 peptide were pulsed to T2 cells, labeled with Calcein-AM, and co-cultured with VCX54 TCR-T cells. The calcein-AM quenching assay was used to detect VCX54 TCR-T killing ability in response to the antigen.

VCX54 TCR-T cells [3] = experiment: VCX54 TCR-T recognition of longer peptides comprising VCX118 (ICS); details: peptides pulsed to T2 cells, co-cultured with VCX54 TCR-T cells
Description: Different length of peptides with VCX118 were pulsed to T2 cells and co-cultured with VCX54 TCR-T cells. The VCX118 peptide was used as a control.
as §1

VCX54 TCR-T cells [4] = experiment: Overlap peptide library screening: peptide-pulsed T2 cells co-cultured with VCX54 TCR-T, ICS of activation markers; details: peptide pulsed to T2 cells, overnight co-culture
Description: Overlap peptide library screening was performed for the recognition target peptide of VCX54 TCR-T cells (FIG. 1). The 9-mer peptide with 8 amino acid overlap peptide library covering the whole length of VCX3A protein was screened for the VCX54 TCR-T cell recognized target. The peptide was pulsed to T2 cell one by one and co-cultured with VCX54 TCR-T. After overnight culturing, the activated marker of T cells such as CD137, CD69, IFN-r and TNFa were detected using intracellular cytokine staining (ICS).
as §1

| Substance | binding ability to HLA-A2 (HLA-A2) | ICS response relative to VCX54 original peptide (VCX54 TCR-T cells [1]) | cross recognition by VCX54 TCR-T (ICS) (VCX54 TCR-T cells [1]) | VCX54 TCR-T killing response relative to VCX54 peptide (VCX54 TCR-T cells [2]) | recognition by VCX54 TCR-T cells (ICS) (VCX54 TCR-T cells [3]) | induction of response of VCX54 TCR-T (CD137, CD69, IFN-r, TNFa by ICS) (VCX54 TCR-T cells [4]) |
| --- | --- | --- | --- | --- | --- | --- |
| SEVEEPLSQ (listed as Homo sapiens) [VCX118, 9-mer VCX/Y peptide shared with all VCX/Y family members] | weak binding ability | higher than the VCX54 original peptide | cross recognized by VCX54 TCR-T | higher than the VCX54 peptide | only recognized the VCX118 peptide | also be able to induce the response of VCX54 TCR-T cells |
| VCX54: the target (original) 9-mer peptide of VCX3A recognized by VCX54 TCR-T cells; sequence not printed (GAATKMAAV) [reference compound] |  |  |  |  |  | able to induce the response of VCX54 TCR-T |
